From PMC3098941 (ACS chemical biology, 2011)

Key:
Format in all cases: binding
CDK2-ANS complex = CDK2-ANS complex (Homo sapiens, UniProt P24941); assay: Quenching of CDK2-ANS fluorescence by ligands; settings: 50 μM ANS; for effect on CDK2-ANS fluorescence yield: concentrations as high as 300 μM, 1.6 μM CDK2
Akt1 = Akt1 (Homo sapiens, UniProt P31749); assay: ANS fluorescence titration of Akt; settings: up to 100 μM ANS
Rock1 = Rock1 (Homo sapiens, UniProt Q13464); assay: ANS fluorescence titration of Rock 1; settings: up to 100 μM ANS
Rock1, sequence (Q13464 5-415): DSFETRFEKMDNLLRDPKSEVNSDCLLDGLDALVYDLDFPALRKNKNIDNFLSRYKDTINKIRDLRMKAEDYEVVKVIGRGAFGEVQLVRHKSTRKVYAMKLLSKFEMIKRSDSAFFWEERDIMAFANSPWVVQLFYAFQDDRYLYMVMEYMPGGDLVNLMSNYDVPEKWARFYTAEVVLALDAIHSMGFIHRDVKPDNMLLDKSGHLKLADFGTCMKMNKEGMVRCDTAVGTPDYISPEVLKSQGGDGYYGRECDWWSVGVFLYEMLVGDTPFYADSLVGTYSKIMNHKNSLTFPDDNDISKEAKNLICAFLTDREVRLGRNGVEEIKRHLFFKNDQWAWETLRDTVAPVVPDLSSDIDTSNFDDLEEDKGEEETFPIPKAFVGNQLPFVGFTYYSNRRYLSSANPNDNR

Aurora A = target: T1, Aurora A (Homo sapiens, UniProt O14965); assay: ANS fluorescence titration of Aurora A; settings: read-out: apparent Kd of ANS for Aurora A; Aurora A 5.8 μM, slit widths 10/10
T1 sequence (O14965 123-380): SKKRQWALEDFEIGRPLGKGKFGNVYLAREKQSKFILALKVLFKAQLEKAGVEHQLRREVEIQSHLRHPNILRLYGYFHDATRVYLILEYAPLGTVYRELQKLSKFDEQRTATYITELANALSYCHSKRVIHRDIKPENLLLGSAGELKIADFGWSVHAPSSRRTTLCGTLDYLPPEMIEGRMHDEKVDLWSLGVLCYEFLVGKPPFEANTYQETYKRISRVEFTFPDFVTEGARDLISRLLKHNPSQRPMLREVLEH

Akt1, sequence (P31749 whole entry): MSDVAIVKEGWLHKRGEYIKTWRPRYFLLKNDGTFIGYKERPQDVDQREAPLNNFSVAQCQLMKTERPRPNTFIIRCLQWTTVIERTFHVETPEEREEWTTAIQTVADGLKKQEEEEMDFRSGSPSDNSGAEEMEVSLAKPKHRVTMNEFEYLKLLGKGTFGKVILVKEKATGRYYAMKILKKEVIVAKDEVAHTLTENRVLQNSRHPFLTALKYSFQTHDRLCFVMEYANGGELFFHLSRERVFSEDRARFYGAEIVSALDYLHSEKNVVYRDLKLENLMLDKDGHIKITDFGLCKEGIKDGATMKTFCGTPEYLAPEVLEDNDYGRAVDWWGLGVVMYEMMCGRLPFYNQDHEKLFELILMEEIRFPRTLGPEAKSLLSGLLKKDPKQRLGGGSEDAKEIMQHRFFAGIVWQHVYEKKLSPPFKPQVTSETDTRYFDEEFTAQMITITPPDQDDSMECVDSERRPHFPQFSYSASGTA

| SMILES | effect on CDK2-ANS fluorescence yield (CDK2-ANS complex) | saturation of ANS fluorescence with Akt (Akt1) | saturation of ANS fluorescence with Rock 1 (Rock1) | Kd (Aurora A) | effect on CDK2-ANS fluorescence (CDK2-ANS complex; concentrations up to 100 μM) |
| --- | --- | --- | --- | --- | --- |
| COc1ccc(O)c(-c2nc(N)nc(N)n2)c1 [JWS648] | only marginally affected | – | – | – | – |
| O=S(=O)(O)c1cccc2cccc(Nc3ccccc3)c12 [ANS, 8-anilino-1-naphthalene sulfonate] | – | saturation was not reached | saturation was not reached | 54 µM | – |
| Nc1ncnc2c1ncn2[C@@H]1O[C@H](COP(=O)(O)OP(=O)(O)OP(=O)(O)O)[C@@H](O)[C@H]1O [ATP] | only marginally affected | – | – | – | did not appear to affect |
